Data published in ChEMBL document CHEMBL1144690, “Isolation of cytotoxic metabolites from targeted peruvian amazonian medicinal plants” (2008).
≈ marks a conversion by molar mass, not a printed value.

System: Mycobacterium tuberculosis
Assay: Antimicrobial activity against multidrug resistant Mycobacterium tuberculosis
Assay type: functional

C/C=C1/CN2CC[C@@]34c5ccccc5N5/C=C6/[C@H]7C[C@@H]8N(CC[C@@]89c8ccccc8N(/C=C(/[C@H]1C[C@H]23)[C@H]54)[C@@H]69)C/C7=C/C [BISNORDIHYDROTOXIFERINE]
MIC: 6.25 µg/mL (≈ 11.3 µM)
